Assay results: PMC6993142 (Journal of natural products, 2017)

What was measured:
[1] = MTS dye cytotoxicity assay, whole panel; format: cell-based; settings: human
[2] = test system: A549, Hep G2, Hep 3B, MCF-7 and MDA-MB-231 cell lines; settings: MCF-7, MDA-MB-231, ref 11f; cited from earlier work
[3] = MTS dye cytotoxicity assay, normal HFF cells; format: cell-based; settings: human, HFF cells (normal foreskin fibroblasts)
[4] = test system: MCF-7, MDA-MB-231, H1299, Ca9–22 and HT-29 cells; settings: MCF-7, MDA-MB-231, H1299, Ca9–22, HT-29; ref 11j, 11h, 11k, 11n; cited from earlier work
[5] = test system: LNCaP (androgen-sensitive human prostate adenocarcinoma); test: MTS dye cytotoxicity assay, LNCaP; format: cell-based; settings: for IC50: Homo sapiens, LNCaP, 72 h, read-out: Cytotoxicity IC50, LNCaP, LNCaP, 72 h, MTS
[6] = test system: ACHN (human renal adenocarcinoma); test: MTS dye cytotoxicity assay, ACHN; format: cell-based; settings: of the 26 withanolides tested
[7] = test system: LNCaP (androgen-sensitive human prostate adenocarcinoma); settings: previously shown; cited from earlier work
[8] = test system: RC cells (ACHN, Caki-1, and SN-12-C); settings: in the presence of TRAIL; cited from earlier work

Row | Structure (SMILES) | IC50 at 72 h [1] [µM] | IC50 at 72 h [3] [nM] | further results
1 | C[C@H]1C(=O)O[C@@H]([C@](C)(O)[C@H]2CC[C@@]3(O)[C@@H]4CC=C5CC=CC(=O)[C@]5(C)[C@H]4CC[C@]23C)[C@@H](O)[C@@H]1CO [Compound 10, (20S,22R)-14α,20,23β,28-tetrahydroxy-1-oxowitha-2,5-dienolide] | > 5 | – | –
2 | CC1=C(C)C(=O)O[C@@H]([C@](C)(O)[C@]2(O)CC[C@@]3(O)[C@@H]4C[C@@H](O)[C@@]5(Cl)CC=CC(=O)[C@]5(C)[C@H]4CC[C@]23C)C1 [Compound 27, withanolide C, reference compound] | – | – | Cytotoxic to cancer cell lines [2]: cytotoxic
3 | CC1=C(CO)C[C@H]([C@](C)(O)[C@]2(O)CC[C@@]3(O)[C@@H]4CC=C5CC=CC(=O)[C@]5(C)[C@H]4CC[C@]23C)OC1=O [Compound 21, withaperuvin J] | – | > 2000 | –
4 | CC1=C(C)C(=O)O[C@@H]([C@](C)(O)[C@]2(O)CC[C@@]3(O)[C@@H]4CC=C5CC=CC(=O)[C@]5(C)[C@H]4CC[C@]23C)C1 [Compound 22, withanolide F] | – | > 2000 | –
5 | CC1=C(C)C(=O)O[C@@H]([C@](C)(O)[C@]2(O)CC[C@@]3(O)[C@@H]4C[C@H](Cl)[C@]5(O)[C@@H](O)C=CC(=O)[C@]5(C)[C@H]4CC[C@]23C)C1 [Compound 17, physalolactone] | > 5 | – | –
6 | CC1=C(C)C(=O)O[C@@H]([C@](C)(O)[C@]2(O)CC[C@@]3(O)[C@@H]4C[C@H](Cl)[C@]5(O)CC=CC(=O)[C@]5(C)[C@H]4CC[C@]23C)C1 [Compound 23, 4-deoxyphysalolactone] | > 5 | – | –
7 | CC1=C(C)C(=O)O[C@@H]([C@](C)(O)C2=CC[C@@]3(O)[C@@H]4C[C@H]5O[C@]56CC=CC(=O)[C@]6(C)[C@H]4CC[C@]23C)C1 [Compound 7, (20S,22R)-5β,6β-epoxy-14α,20-dihydroxy-1-oxowitha-2,16,24-trienolide] | > 5 | – | –
8 | CC1=C(C)C(=O)O[C@@H]([C@](C)(O)[C@]2(O)CC[C@@]3(O)[C@@H]4C[C@@H](O)[C@@]5(O)CC=CC(=O)[C@]5(C)[C@H]4CC[C@]23C)C1 [Compound 18, withanolide S] | > 5 | – | –
9 | CC1=C(C)C(=O)O[C@@H]([C@](C)(O)[C@]2(O)CC[C@@]3(O)[C@@H]4C[C@H]5O[C@]56[C@@H](O)C=CC(=O)[C@]6(C)[C@H]4CC[C@]23C)C1 [Compound 12, 4β-hydroxywithanolide E] | – | > 2000 | Cytotoxic to cancer cell lines [2]: cytotoxic; Inhibition of proliferation [4]: inhibit proliferation
10 | CC1=C(C)C(=O)O[C@@H]([C@](C)(O)[C@]2(O)CC[C@@]3(O)[C@@H]4[C@@H](O)C=C5CC=CC(=O)[C@]5(C)[C@H]4CC[C@]23C)C1 [Compound 8, (20S,22R)-7β,14α,17β,20-tetrahydroxy-1-oxowitha-2,5,24-trienolide] | – | > 2000 | IC50 [5]: < 2000 nM
11 | CC1=C(C)[C@H](O)[C@H]([C@](C)(O)[C@]2(O)CC[C@@]3(O)[C@@H]4C[C@H]5O[C@]56CC=CC(=O)[C@]6(C)[C@H]4CC[C@]23C)OC1=O [Compound 6, (20S,22R)-5β,6β-epoxy-14α,17β,20,23β-tetrahydroxy-1-oxowitha-2,24-dienolide] | – | > 2000 | –
12 | CO[C@]12CC=CC(=O)[C@]1(C)[C@H]1CC[C@]3(C)[C@](O)([C@@](C)(O)[C@H]4CC(C)=C(C)C(=O)O4)CC[C@@]3(O)[C@@H]1C[C@H]2O [Compound 16, withanolide S 5-methyl ether] | > 5 | – | –
13 | CC(=O)OC[C@]12CC[C@H]3[C@@H](C[C@H]4O[C@]45CC=CC(=O)[C@]35C)[C@]1(O)CC[C@@]2(O)[C@@](C)(O)[C@H]1CC(C)=C(C)C(=O)O1 [Compound 26, Physachenolide C, reference compound] | – | > 2000 | Enhancement of activity (26 vs 13) ([5]; LNCaP cells, acetoxylation at C-18): 3 fold; Selectivity for renal carcinoma (ACHN) cells [6]: showed selectivity; Activity for LNCaP cells [7]: selective and potent activity
14 | CC1=C(C)C(=O)O[C@@H]([C@](C)(O)[C@]2(O)CC[C@@]3(O)[C@@H]4[C@@H](O)C=C5C=CCC(=O)[C@]5(C)[C@H]4CC[C@]23C)C1 [Compound 9, (20S,22R)-7β,14α,17β,20-tetrahydroxy-1-oxowitha-3,5,24-trienolide] | – | > 2000 | IC50 [5]: < 2000 nM
15 | CC1=C(C)C(=O)O[C@@H]([C@](C)(O)C2=CC[C@@]3(O)[C@@H]4C[C@H]5O[C@]56[C@@H](O)C=CC(=O)[C@]6(C)[C@H]4CC[C@]23C)C1 [Compound 14, phyperunolide A] | > 5 | – | Cytotoxic to cancer cell lines [2]: cytotoxic
16 | CC1=C(C)C(=O)O[C@@H]([C@](C)(O)[C@]2(O)CC[C@@]3(O)[C@@H]4CC=C5[C@@H](O)C=CC(=O)[C@]5(C)[C@H]4CC[C@]23C)C1 [Compound 20, physapruin A] | – | > 2000 | Selectivity for renal carcinoma (ACHN) cells [6]: showed selectivity
17 | CC1=C(C)C(=O)O[C@@H]([C@](C)(O)[C@]2(O)CC[C@@]3(O)[C@@H]4[C@@H](O)[C@H]5O[C@]56CC=CC(=O)[C@]6(C)[C@H]4CC[C@]23C)C1 [Compound 19, withaperuvin L] | – | > 2000 | –
18 | CO[C@H]1C=CC(=O)[C@]2(C)[C@H]3CC[C@]4(C)[C@](O)([C@@](C)(O)[C@H]5CC(C)=C(C)C(=O)O5)CC[C@@]4(O)[C@@H]3C[C@H]3O[C@]132 [Compound 15, withangulatin E] | – | > 2000 | IC50 [5]: < 2000 nM
19 | C[C@H]1C(=O)OC[C@H]1C[C@@H](O)[C@](C)(O)[C@@]1(O)CC[C@@]2(O)[C@@H]3CC=C4CC=CC(=O)[C@]4(C)[C@H]3CC[C@]12C [Compound 25, perulactone H] | > 5 | – | –
20 | CC1=C(C)C(=O)O[C@@H]([C@](C)(O)[C@]2(O)CC[C@@]3(O)[C@@H]4C[C@H]5O[C@]56CC=CC(=O)[C@]6(C)[C@H]4CC[C@]23C)C1 [Compound 13, withanolide E] | – | > 2000 | Selectivity for renal carcinoma (ACHN) cells [6]: showed selectivity; Cytotoxic to cancer cell lines [2]: cytotoxic; Long-term survival of RC cells [8]: eliminate long-term survival
21 | C[C@H]1C(=O)OC[C@H]1C[C@@H](O)[C@](C)(O)[C@]1(O)CC[C@@]2(O)[C@@H]3CC=C4CC=CC(=O)[C@]4(C)[C@H]3CC[C@]12C [Compound 24, perulactone B] | > 5 | – | –
22 | C[C@H]1C[C@H]([C@](C)(O)[C@]2(O)CC[C@@]3(O)[C@@H]4C[C@H]5O[C@]56CC=CC(=O)[C@]6(C)[C@H]4CC[C@]23C)OC(=O)[C@@H]1C [Compound 11, (20S,22R,24S,25R)-5β,6β-epoxy-14α,17β,20-trihydroxy-1-oxowitha-2-enolide] | – | > 2000 | –
